Columns and labels:
[1] = test system: RSV A2; test: RSV plaque reduction assay; format: cell-based, respiratory syncytial virus (RSV); conditions: human respiratory syncytial virus, HepG2, Hep-G2 cells, mean of at least two experiments
Protocol: (§1) Compounds were subjected to RSV plaque reduction assays according to the following protocol. Plaque EC50 and cell toxicity CC50 values are a mean of at least two experiments and figures are rounded to whole units.
Hep-G2 cells (ECACC, 85011430) were passaged in flasks and seeded in 24-well plates in DMEM containing antibiotics and supplemented with 10% FBS. During inoculation and subsequent incubation, cells were cultured in DMEM containing 2% FBS. 100 plaque forming unit/well of RSV (RSV A2 ECACC, 0709161v) was mixed with eight serial dilutions of compound. Subsequently, 100 μL of the virus/compound mixtures was added to confluent Hep-G2 cell monolayers. The cells and virus/compound mixtures were incubated at 37° C. in a humidified 5% CO2 incubator for 2 h prior to removal of the inoculum and addition of 1 mL of overlay (DMEM containing 2% FBS and 0.8% CMC) containing compound dilutions. The cells and were incubated at 37° C. in a humidified 5% CO2 incubator for 2 days.
Cells were washed with PBS before adding 75/25% […] EtOH/MeOH, for 3 min. Fixative was removed and plates were washed with PBS. A pre-titrated amount of the primary antibody was added in 200 μL PBS/2% milk powder, and plates incubated for 90 min at 37° C. The plates were washed 3 times with PBS/0.05% Tween20 before addition of rabbit anti-goat horse radish peroxidase in 200 μL PBS/2% milk powder, and incubated for 1 h at 37° C. Following three wash steps with PBS/0.05% Tween20, 200 μL ready-to-use TrueBlue was added and plates were incubated at rt for 10-15 min before washing with water. After removal of water, plates were air-dried in the dark.
(§2) Plates were scanned and analysed using the Immunospot S6 Macro analyser, which is equipped with BioSpot analysis software for counting immunostained plaques (virospots). Plaque counts were used to calculate % c infection relative to the mean of the plaque count in the virus control wells for RSV. The EC50 value was calculated as 50% reduction in signal, respectively, by interpolation of inhibition curves fitted with a 4-parameter nonlinear regression with a variable slope in Dotmatics. Plaque EC50 and cell toxicity CC50 values are a mean of at least two experiments and figures are rounded to whole units.

[2] = Cell cytotoxicity (CC50); format: cell-based; conditions: human; mean of at least two experiments
Text: as §1, §2

SMILES | EC50 [1] [µM] | CC50 [2] [µM]
O=C(N[C@H]1N=C(c2ccccc2)c2cccc(F)c2NC1=O)c1c(-c2ccccc2)nc2ccc(N3CCOCC3)nn12 [Example 83, N-[(3S)-9-fluoro-2-oxo-5-phenyl-1,3-dihydro-1,4-benzodiazepin-3-yl]-6-morpholin-4-yl-2-phenylimidazo[1,2-b]pyridazine-3-carboxamide] | 0.118 | > 25
CCc1ccc(-c2nc3ccc(OC)nn3c2C(=O)N[C@H]2N=C(c3ccccc3)c3cccc(F)c3NC2=O)cn1 [Example 121, 2-(6-Ethylpyridin-3-yl)-6-methoxy-N-[(3S)-9-fluoro-2-oxo-5-phenyl-1,3-dihydro-1,4-benzodiazepin-3-yl]imidazo[1,2-b]pyridazine-3-carboxamide] | 0.042 | > 25
COc1cccc(-c2nn3cccnc3c2C(=O)N[C@H]2N=C(c3ccccc3)c3cccc(F)c3NC2=O)c1F [Example 9, 2-(2-Fluoro-3-methoxyphenyl)-N-[(3S)-9-fluoro-2-oxo-5-phenyl-1,3-dihydro-1,4-benzodiazepin-3-yl]pyrazolo[1,5-a]pyrimidine-3-carboxamide] | 0.073 | > 25
Cc1ccc2nc(-c3cncc(C(F)(F)F)c3)c(C(=O)N[C@H]3N=C(c4ccccc4)c4ccccc4NC3=O)n2n1 [Example 46, 6-Methyl-N-[(3S)-2-oxo-5-phenyl-1,3-dihydro-1,4-benzodiazepin-3-yl]-2-[5-(trifluoromethyl)pyridin-3-yl]imidazo[1,2-b]pyridazine-3-carboxamide] | 0.094 | > 25
O=C(N[C@H]1N=C(c2ccccc2)c2cccc(F)c2NC1=O)c1c(-c2ccccc2F)nc2ccc(N3CCC3)nn12 [Example 94, 6-(Azetidin-1-yl)-N-[(3S)-9-fluoro-2-oxo-5-phenyl-1,3-dihydro-1,4-benzodiazepin-3-yl]-2-(2-fluorophenyl)imidazo[1,2-b]pyridazine-3-carboxamide] | 0.05 | > 25
O=C(N[C@H]1N=C(c2ccccc2)c2ccccc2NC1=O)c1c(-c2ccccc2F)nn2ccc(N3CCCC3)nc12 [Example 41, 2-(2-Fluorophenyl)-N-[(3S)-2-oxo-5-phenyl-1,3-dihydro-1,4-benzodiazepin-3-yl]-5-pyrrolidin-1-ylpyrazolo[1,5-a]pyrimidine-3-carboxamide] | 0.08 | > 25
[2H]C([2H])([2H])Oc1ccc2nc(-c3ccccc3)c(C(=O)N[C@H]3N=C(c4ccccc4)c4ccccc4NC3=O)n2n1 [Example 112, N-[(3S)-2-oxo-5-phenyl-1,3-dihydro-1,4-benzodiazepin-3-yl]-2-phenyl-6-(trideuteriomethoxy)imidazo[1,2-b]pyridazine-3-carboxamide] | 0.05 | > 25
O=C(N[C@H]1N=C(c2ccccc2)c2cccc(F)c2NC1=O)c1c(-c2ccccc2F)nc2ccc(N3CCOCC3)nn12 [Example 79, N-[(3S)-9-Fluoro-2-oxo-5-phenyl-1,3-dihydro-1,4-benzodiazepin-3-yl]-2-(2-fluorophenyl)-6-morpholin-4-ylimidazo[1,2-b]pyridazine-3-carboxamide] | 0.026 | > 25
Cc1cc(-c2nc3ccc(C)nn3c2C(=O)N[C@H]2N=C(c3ccccc3)c3cccc(F)c3NC2=O)ccn1 [Example 98, N-[(3S)-9-fluoro-2-oxo-5-phenyl-1,3-dihydro-1,4-benzodiazepin-3-yl]-6-methyl-2-(2-methylpyridin-4-yl)imidazo[1,2-b]pyridazine-3-carboxamide] | 0.048 | > 25
Cc1ccc(F)c(-c2nn3cccnc3c2C(=O)N[C@H]2N=C(c3ccccc3)c3cccc(F)c3NC2=O)c1 [Example 26, 2-(2-Fluoro-5-methylphenyl)-N-[(3S)-9-fluoro-2-oxo-5-phenyl-1,3-dihydro-1,4-benzodiazepin-3-yl]pyrazolo[1,5-a]pyrimidine-3-carboxamide] | 0.053 | 8.77
CC(C)c1ccc(-c2nn3cccnc3c2C(=O)N[C@H]2N=C(c3ccccc3)c3ccccc3NC2=O)cn1 [Example 58, 2-(6-Propan-2-ylpyridin-3-yl)-N-[(3S)-2-oxo-5-phenyl-1,3-dihydro-1,4-benzodiazepin-3-yl]pyrazolo[1,5-a]pyrimidine-3-carboxamide] | 0.069 | > 25
Cc1ccn2nc(-c3ccccc3F)c(C(=O)N[C@H]3N=C(c4ccccc4)c4ccccc4NC3=O)c2n1 [Example 22, 2-(2-Fluorophenyl)-5-methyl-N-[(3S)-2-oxo-5-phenyl-1,3-dihydro-1,4-benzodiazepin-3-yl]pyrazolo[1,5-a]pyrimidine-3-carboxamide] | 0.033 | > 25
COc1ccc2nc(-c3ccc(C)cn3)c(C(=O)N[C@H]3N=C(c4ccccc4)c4cccc(F)c4NC3=O)n2n1 [Example 120, N-[(3S)-9-fluoro-2-oxo-5-phenyl-1,3-dihydro-1,4-benzodiazepin-3-yl]-6-methoxy-2-(6-methyipyridin-3-yl)imidazo[1,2-b]pyridazine-3-carboxamide] | 0.101 | > 25
Cc1ccc(F)c(-c2nn3cccnc3c2C(=O)N[C@H]2N=C(c3ccccc3)c3ccccc3NC2=O)c1 [Example 25, 2-(2-Fluoro-5-methylphenyl)-N-[(3S)-2-oxo-5-phenyl-1,3-dihydro-1,4-benzodiazepin-3-yl]pyrazolo[1,5-a]pyrimidine-3-carboxamide] | 0.116 | 15.4
Cc1ccn2nc(-c3ccc(F)cc3F)c(C(=O)N[C@H]3N=C(c4ccccc4)c4ccccc4NC3=O)c2n1 [Example 35, 2-(2,4-Difluorophenyl)-5-methyl-N-[(3S)-2-oxo-5-phenyl-1,3-dihydro-1,4-benzodiazepin-3-yl]pyrazolo[1,5-a]pyrimidine-3-carboxamide] | 0.029 | > 25
Cc1ccc(-c2nn3cccnc3c2C(=O)N[C@H]2N=C(c3ccccc3)c3ccccc3NC2=O)cn1 [Example 49, 2-(6-Methylpyridin-3-yl)-N-[(3S)-2-oxo-5-phenyl-1,3-dihydro-1,4-benzodiazepin-3-yl]pyrazolo[1,5-a]pyrimidine-3-carboxamide] | 0.1 | > 25
Cc1cncc(-c2nc3ccc(C)nn3c2C(=O)N[C@H]2N=C(c3ccccc3)c3cccc(F)c3NC2=O)c1 [Example 103, N-[(3S)-9-fluoro-2-oxo-5-phenyl-1,3-dihydro-1,4-benzodiazepin-3-yl]-6-methyl-2-(5-methylpyridin-3-yl)imidazo[1,2-b]pyridazine-3-carboxamide] | 0.082 | > 25
Cc1ccc2nc(-c3ccc(F)cc3F)c(C(=O)N[C@H]3N=C(c4ccccc4)c4ccccc4NC3=O)n2n1 [Example 90, 2-(2,4-Difluorophenyl)-6-methyl-N-[(3S)-2-oxo-5-phenyl-1,3-dihydro-1,4-benzodiazepin-3-yl]imidazo[1,2-b]pyridazine-3-carboxamide] | 0.008 | > 25
CCOc1ccc2nc(-c3ccc(CC)nc3)c(C(=O)N[C@H]3N=C(c4ccccc4)c4cccc(F)c4NC3=O)n2n1 [Example 122, 6-Ethoxy-2-(6-ethylpyridin-3-yl)-N-[(3S)-9-fluoro-2-oxo-5-phenyl-1,3-dihydro-1,4-benzodiazepin-3-yl]imidazo[1,2-b]pyridazine-3-carboxamide] | 0.1 | > 25
C[C@H]1COCCN1c1ccc(-c2nn3cccnc3c2C(=O)N[C@H]2N=C(c3ccccc3)c3cccc(F)c3NC2=O)cn1 (single isomer, unassigned) [Example 125, N-[(3S)-9-fluoro-2-oxo-5-phenyl-2,3-dihydro-1H-1,4-benzodiazepin-3-yl]-2-{6-[(3S*)-3-methylmorpholin-4-yl]pyridin-3-yl}pyrazolo[1,5-a]pyrimidine-3-carboxamide] | 0.087 | > 25
CCNc1ccc(-c2nn3cccnc3c2C(=O)N[C@H]2N=C(c3ccccc3)c3cccc(F)c3NC2=O)c(F)n1 [Example 66, 2-[6-(Ethylamino)-2-fluoropyridin-3-yl]-N-[(3S)-9-fluoro-2-oxo-5-phenyl-1,3-dihydro-1,4-benzodiazepin-3-yl]pyrazolo[1,5-a]pyrimidine-3-carboxamide] | 0.013 | > 25
CC(C)(O)Cc1ccc(-c2nn3cccnc3c2C(=O)N[C@H]2N=C(c3ccccc3)c3cccc(F)c3NC2=O)cn1 [Example 77, 2-[6-(2-Hydroxy-2-methylpropyl)pyridin-3-yl]-N-[(3S)-9-fluoro-2-oxo-5-phenyl-1,3-dihydro-1,4-benzodiazepin-3-yl]pyrazolo[1,5-a]pyrimidine-3-carboxamide] | 0.104 | > 25

— patent US11634425B2, “Pharmaceutical compounds” (priority 2019, dated 2023)
